According to US20120088731A1, “METHOD FOR TREATING PARKINSON'S DISEASE THROUGH REGULATING VDAC1 PROTEIN” (SNU R&DB FOUNDATION, priority 2010, published 2012):

Assays:
Type in all cases: cell-based
[1] = tested on: cultured rat hippocampal neurons transfected with PINK1 shRNA; assay: Mitochondrial fragmentation in neurons transfected with PINK1 shRNA (immunocytochemistry); details: AA 48 hours, CsA 24 hours, Ru360 24 hours; for dendritic mitochondrial fragmentation induced by knockdown of PINK1 (FIG. 7): VDAC1 shRNA 72 hours transfection, PINK1 shRNA at 13 DIV; for relative number of the neurons containing fragmented mitochondria (FIG. 8): PINK1-knockdowned hippocampal neurons, VDAC1 shRNA 72 hours
[2] = tested on: parkin null mouse mDA neurons; assay: Mitochondrial defects of parkin null mouse mDA neurons (immunocytochemistry); details: for level of the elongated mitochondria (FIG. 9): parkin null mDA neurons treated for 24 hours, 7 DIV; for relative numbers of the neurons containing fragmented mitochondria (FIG. 10): parkin null mouse mDA neurons, compared to heterozygous littermates
Description: (§1) Primary mouse DA neuron cultures were prepared from embryonic day (E) 13.5 mouse midbrain of parkin heterogeneous(+/−) and null(−/−) embryos [Neurobasal Media (Invitrogen)].

[3] = tested on: parkin null mouse mDA neurons; assay: Synaptic activity (mEPSCs) of parkin null mouse mDA neurons; details: condition same as Experiment 6
Description: as §1
It was examined whether PINK1-Parkin-VDAC1 pathway regulates the synaptic activity of the mDA neurons. To this end, the frequency and amplitude of miniature excitatory postsynaptic currents (mEPSCs) of parkin heterozygous and null mouse mDA neurons were measured.

[4] = tested on: cultured rat hippocampal neurons transfected with parkin shRNA; assay: Mitochondrial fragmentation in neurons transfected with parkin shRNA (immunocytochemistry); details: AA 48 hours, CsA 24 hours, Ru360 24 hours; for dendritic mitochondrial fragmentation induced by parkin knockdown (FIG. 4): VDAC1 shRNA 72 hours transfection, parkin shRNA at 13 DIV; for relative numbers of the neurons containing fragmented mitochondria (FIG. 5): parkin-knockdowned hippocampal neurons, VDAC1 shRNA 72 hours
Source text: EGFP was used as a fluorescence marker to confirm the transfection of neuron with shRNA vector, and DsRed2-mito [pDsRed2-mito (Clontech)] was used as a fluorescence marker to observe mitochondria in neurons.

| Compound | dendritic mitochondrial fragmentation induced by knockdown of PINK1 (FIG. 7) [1] | relative number of the neurons containing fragmented mitochondria (FIG. 8) [1] | level of the elongated mitochondria (FIG. 9) [2] | relative numbers of the neurons containing fragmented mitochondria (FIG. 10) [2] | frequency of mEPSCs (FIG. 12a) [3] | dendritic mitochondrial fragmentation induced by parkin knockdown (FIG. 4) [4] | relative numbers of the neurons containing fragmented mitochondria (FIG. 5) [4] |
| --- | --- | --- | --- | --- | --- | --- | --- |
| C[C@H]1[C@H](C)CC[C@]2(C(=O)O)CC[C@]3(C)C(=CC[C@@H]4[C@@]5(C)C[C@@H](O)[C@H](O)[C@@](C)(CO)[C@@H]5CC[C@]43C)[C@H]12 [AA, asiatic acid] | suppressed the dendritic mitochondrial fragmentation induced by knockdown of PINK1 | prevents dendritic mitochondrial fragmentation in PINK1-knockdowned hippocampal neurons and/or restores the fragmented mitochondria to normal elongated morphology | showed a significantly restored level of the elongated mitochondria | significantly prevented mitochondrial fragmentation in parkin null mouse mDA neurons | restored the frequency of mEPSCs up to the level of heterozygotic neurons | suppressed the dendritic mitochondrial fragmentation induced by parkin knockdown | prevents dendritic mitochondrial fragmentation in parkin-knockdowned hippocampal neurons and/or restores the fragmented mitochondria to normal elongated morphology |
| Ru360 | suppressed the dendritic mitochondrial fragmentation induced by knockdown of PINK1 | prevents dendritic mitochondrial fragmentation in PINK1-knockdowned hippocampal neurons and/or restores the fragmented mitochondria to normal elongated morphology | showed a significantly restored level of the elongated mitochondria | significantly prevented mitochondrial fragmentation in parkin null mouse mDA neurons | restored the frequency of mEPSCs up to the level of heterozygotic neurons | suppressed the dendritic mitochondrial fragmentation induced by parkin knockdown | prevents dendritic mitochondrial fragmentation in parkin-knockdowned hippocampal neurons and/or restores the fragmented mitochondria to normal elongated morphology |
| cyclosporine A [CsA] | suppressed the dendritic mitochondrial fragmentation induced by knockdown of PINK1 | – | – | – | – | suppressed the dendritic mitochondrial fragmentation induced by parkin knockdown | – |
